This is an account of results in article PMC5293585, “Characteristics of a water-forming NADH oxidase from Methanobrevibacter smithii, an archaeon in the human gut” (Bioscience Reports, 2016).

Usually Km stands for the substrate concentration at which the rate is half of its maximum.

Assay [1] concerns the target T1, NOX-ms (Methanobrevibacter smithii, UniProt A5UJ73).
T1 construct: gene Msm_0046; N-terminal His-tag (pET28a, EcoRI/XhoI), tag kept; E. coli BL21(DE3); FAD-containing holoenzyme (apo form for the FAD row)
T1 sequence (A5UJ73 1-444): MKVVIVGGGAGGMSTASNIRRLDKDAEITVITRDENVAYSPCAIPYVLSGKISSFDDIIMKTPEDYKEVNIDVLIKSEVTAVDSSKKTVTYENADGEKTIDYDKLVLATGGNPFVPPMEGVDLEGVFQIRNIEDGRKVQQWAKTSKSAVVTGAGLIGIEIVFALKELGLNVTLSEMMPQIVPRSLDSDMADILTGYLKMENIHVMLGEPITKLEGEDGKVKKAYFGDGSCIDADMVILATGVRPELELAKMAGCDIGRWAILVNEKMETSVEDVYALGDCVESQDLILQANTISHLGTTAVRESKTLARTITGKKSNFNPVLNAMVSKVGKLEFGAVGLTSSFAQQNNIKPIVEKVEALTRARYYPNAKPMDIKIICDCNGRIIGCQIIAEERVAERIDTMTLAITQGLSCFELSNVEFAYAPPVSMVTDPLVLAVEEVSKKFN
The experiment in a line: absorption spectrum of holo, apo and reconstituted enzyme; activity restored by FAD. Format: binding. The conditions noted are these: apoenzyme reconstituted with equimolar FAD, room temperature, 5 min, dialysed.

For assay [2], the target named is T1, NOX-ms. Kind of assay: NADH oxidation at A340, Michaelis-Menten fit. Format: biochemical. The conditions noted are these: apparent; O2 as co-substrate (aerobic); NADH 0.02-0.6 mM; optimal conditions (about 37°C, 50 mM sodium phosphate).
Assay [3] deals with T2, NOX-ms (Methanobrevibacter smithii, UniProt A5UJ73, C230A).
T2 construct: gene Msm_0046; N-terminal His-tag (pET28a, EcoRI/XhoI), tag kept; E. coli BL21(DE3); FAD-containing holoenzyme (apo form for the FAD row)
The experiment in a line: NADH oxidation at A340, relative activity. Format: biochemical. As to conditions: apparent; O2 as co-substrate (aerobic); NADH 0.02-0.6 mM; optimal conditions (about 37°C, 50 mM sodium phosphate).

T2 sequence (A5UJ73 entry or part of it C230A): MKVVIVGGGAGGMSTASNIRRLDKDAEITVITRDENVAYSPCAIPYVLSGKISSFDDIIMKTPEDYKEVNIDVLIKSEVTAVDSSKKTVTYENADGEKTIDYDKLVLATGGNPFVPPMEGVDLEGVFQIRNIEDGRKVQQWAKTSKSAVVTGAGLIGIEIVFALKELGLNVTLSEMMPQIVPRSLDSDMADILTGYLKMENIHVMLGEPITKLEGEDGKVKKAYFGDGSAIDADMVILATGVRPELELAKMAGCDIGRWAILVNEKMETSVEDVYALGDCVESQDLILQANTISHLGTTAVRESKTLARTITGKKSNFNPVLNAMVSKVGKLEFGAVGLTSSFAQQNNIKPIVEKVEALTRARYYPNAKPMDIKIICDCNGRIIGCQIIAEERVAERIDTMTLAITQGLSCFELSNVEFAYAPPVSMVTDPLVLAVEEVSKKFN

Take `Cc1cc2nc3c(=O)[nH]c(=O)nc-3n(C[C@H](O)[C@H](O)[C@H](O)COP(=O)(O)OP(=O)(O)OC[C@H]3O[C@@H](n4cnc5c(N)ncnc54)[C@H](O)[C@@H]3O)c2cc1C` [FAD]: in assay [1], the “absorption spectrum of holo, apo and reconstituted enzyme; activity restored by” value was “The holoenzyme can be reconstituted by incubating equimolar concentrations of apomonomers and FAD”. For the compound `NC(=O)C1=CN([C@@H]2O[C@H](COP(=O)(O)OP(=O)(O)OC[C@H]3O[C@@H](n4cnc5c(N)ncnc54)[C@H](O)[C@@H]3O)[C@@H](O)[C@H]2O)C=CC1` [NADH], the Michaelis-Menten constant (Km) in assay [2] fell in the range of 47.8 to 54.6 µM. In assay [3], the “NADH oxidation at A340, relative activity” value is “the C230A mutant had similar NOX activity to that of the wild-type protein”.
